The values that follow come from EP0392326B1, “Dichloro-substituted imidazole derivatives as antifungal agents” (SOCIEDAD ESPANOLA DE ESPECIALIDADES FARMACO-TERAPEUTICAS, …, priority 1989, dated 1990).

The subject of series [1] is Candida tropicalis CECT 1440. Put plainly: In vitro activity against Candida tropicalis CECT 1440 (MIC and RIF). In kind it is cell-based. The following applies: for RIF: Relative Inhibition Factor, Candida tropicalis CECT 1440; for activity compared with Clotrimazole: applicant's own tests, illustrated by the table of Example 3. The source says:
In vitro activity against Candida tropicalis CECT 1440.
This pharmacological test allows a comparison of the activities of the two products of the present invention (WAS 2160 and WAS 2169) with the activities of the structurally closest described product (SQ 80896), the structurally closest commercial product (Clotrimazole) and the analogue product without the seven-membered ring (WAS 2162). MIC (Minimum Inhibitory Concentration, in […]) and RIF (Relative Inhibition Factor) parameters were determined in a standard way, obtaining the results of the table (WAS 2162 is the nitric acid salt of 1-[(2,4-dichlorophenyl)phenylmethyl]-1H-imidazole, prepared at our laboratory).

The test system of the next series is C. albicans. Put plainly: In vitro MIC, progressive double dilutions in liquid medium. In kind it is cell-based. On the set-up: unit not given here. The note with it: Sabouraud broth with gentamycin. How it is done: (§1) In vitro ativity against 116 strains of yeasts and 45 strains of dermatophytes
(§2) MIC-s were determined by the method of progressive double dilutions in a liquid medium, using sterile microplates. The culture medium used was the Sabouraud broth with gentamycin (100 mg/1000 mL).

For another series, the system named is C. parapsilosis. The series is described as above. Type of series: cell-based. Also noted: unit not given here. The note with it: Sabouraud broth with gentamycin. How it is done: as §1, §2
The test system of the next series is C. tropicalis. Described as above. In kind it is cell-based. On the set-up: unit not given here. The following applies: Sabouraud broth with gentamycin. How it is done: as §1, §2
In the next series the test system is M. gypseum. The description is as above. The note with it: Sabouraud broth with gentamycin. On the set-up: unit not given here. In kind it is cell-based. How it is done:
as §1, §2

In a further series the test system is C. Krusei. The series is described as above. The following applies: Sabouraud broth with gentamycin. Type of series: cell-based. How it is done:
as §1, §2

The next series has as its system Epidermophyton floccosum. The description is as above. In kind it is cell-based. The following applies: Sabouraud broth with gentamycin. How it is done:
as §1, §2

The subject of a further series is Microsporum canis. The series is described as above. Type of series: cell-based. The note with it: Sabouraud broth with gentamycin. How it is done:
as §1, §2

Another series has as its system T. tonsurans. Described as above. In kind it is cell-based. The following applies: Sabouraud broth with gentamycin. How it is done: as §1, §2
The subject of a further series is Torulopsis glabrata. The series is described as above. Type of series: cell-based. The note with it: Sabouraud broth with gentamycin. How it is done: as §1, §2
A further series relates to Trich. rubrum. The description is as above. In kind it is cell-based. The note with it: Sabouraud broth with gentamycin. How it is done: as §1, §2
In the next series the test system is Trichoph. mentagrophytes. Described as above. In kind it is cell-based. The following applies: Sabouraud broth with gentamycin. How it is done:
as §1, §2

For series [2], the system named is Trichophyton mentagrophytes. Description: In vivo protection against experimentally-induced dermatophytosis. The note with it: guinea pig, double-blind. How it is done: In vivo tests of protection against experimentally-induced dermatophytosis in the guinea pig, caused by Trichophyton mentagrophytes.
Two double-blind comparative tests were carried out, with the following results: […]

The subject of series [3] is Malassezia furfur (Pytiosporum). Description: In vitro test against 30 strains of Malassezia furfur. In kind it is cell-based. The note with it: for % of strains with PIC lower than 40 »g/mL: PIC = Partial Inhibitory Concentration: growth inhibition greater than 50% in relation to controls. How it is done:
In vitro test against 30 strains of Malassezia furfur (Pytiosporum)
A double-blind comparative test was carried out with WAS 2160, Clotrimazole and Bifonazole, with the results of the table. (PIC = Partial Inhibitory Concentration: growth inhibition greater than 50% in relation to controls).

The subject of a further series is Candida albicans. The note with it: data of US 4.420.474 Table I; cited from earlier work.
Another series has as its system candidiosis. Description: In vivo antifungal activity against candidiosis. The following applies: guinea pig candidiosis, double-blind. How it is done: In vivo test of antifungal activity against candidiosis in guinea pig
A double-blind comparative test was carried out with WAS 2160 and Clotrimazole, with the following results: […]

Series [4] is described as follows: Tolerance test in rabbits (eye, skin, vagina). The note with it: skin and vagina. In kind it is in vivo. An excerpt: Tolerance test of WAS 2160 in rabbits

On to `Clc1ccc(C(c2ccccc2)n2ccnc2)c(Cl)c1` (centres unmarked) [WAS 2162, 1-[(2,4-dichlorophenyl)phenylmethyl]-1H-imidazole], for which, in [1], the RIF came to 94.47 and the “activity compared with Clotrimazole” value is “considerably less active than Clotrimazole”.
As for `c1ccc(-c2ccc(C(c3ccccc3)n3ccnc3)cc2)cc1` (centres unmarked) [Bifonazole], the MIC against C. albicans was 12,10; against C. parapsilosis, 58,97; against C. tropicalis, 72,67; against M. gypseum it was 6,25; against C. Krusei, 50,50; against Epidermophyton floccosum, 0,02. Moreover, the MIC with Microsporum canis is 3,12; in the series with T. tonsurans it was 1,20; in the series with Torulopsis glabrata it was 14,88; in the series with Trich. rubrum, 1,19; in the series with Trichoph. mentagrophytes, 1,48. Moreover, the “% of negative cultures after treatment” value in [2] (test I) is recorded as 39 % (test I); in series [2] (test II) it was 0 % (test II). For the same compound, the “% of strains with MIC lower than 40 »g/mL” value in [3] is recorded as 83%. The “% of strains with PIC lower than 40 »g/mL” value in series [3] was 50%.
In the case of `Clc1ccc2c(c1)C(n1ccnc1)c1ccccc1CC2` (centres unmarked) [SQ 80896, 1-(3-chloro-10,11-dihydro-5H-dibenzo[a,d]dicyclohepten-5-yl)-1H-imidazole], in series [1], the RIF amounted to 83.96 and the “activity compared with Clotrimazole” value is “considerably less active than Clotrimazole”. The “activity compared with Clotrimazole (MIC parameters)” value in the series with Candida albicans was “considerably less active than Clotrimazole”.
For `Clc1cc(Cl)c2c(c1)C=Cc1ccccc1C2n1ccnc1.O=[N+]([O-])O` (racemic) [WAS 2169, 1-(2,4-dichloro-5H-dibenzo[a,d]cyclohepten-5-yl)-1H-imidazole nitrate], the RIF in series [1] came to 54.94. Further, the MIC is given as 1,98 against C. albicans; 1,08 with C. parapsilosis; 7,58 with C. tropicalis; 0,08 in the series with M. gypseum; 5,61 against C. Krusei; 0,06 in the series on Microsporum canis. Besides, the figures for the MIC in the series on Torulopsis glabrata, against Trich. rubrum and in the series on Trichoph. mentagrophytes were 6,33, 0,30 and 0,17, respectively. Besides, the “% of negative cultures after treatment” value in series [2] (test II) was 81,8%.
The compound `Clc1cc(Cl)c2c(c1)CCc1ccccc1C2n1ccnc1.O=[N+]([O-])O` (racemic) [WAS 2160, 1-(2,4-Dichloro-10,11-dihydro-5H-dibenzo[a,d]cyclohepten-5-yl)-1H-imidazole nitrate] came in with an RIF in series [1] of 39.31. Also, the MIC against C. albicans was 2,25; against C. parapsilosis, 2,06; against C. tropicalis it was 3,44; in the series on M. gypseum it was 1,05; with C. Krusei it was 3,17; against Epidermophyton floccosum it was 0,32. Moreover, the MIC is 0,39 in the series with Microsporum canis; 0,19 against T. tonsurans; 1,25 against Torulopsis glabrata; 0,54 in the series with Trich. rubrum; 0,17 against Trichoph. mentagrophytes. For the same compound, the “% of negative cultures after treatment” value stood at 50% in series [2] (test I) and 100% in the series with candidiosis. Moreover, the “% of animals with total clin. healing” value in the series on candidiosis was 60%. In addition, in [3], the “% of strains with MIC lower than 40 »g/mL” value worked out at 40%. Also, the “% of strains with PIC lower than 40 »g/mL” value in [3] is given as 60%. Moreover, the Tolerance result in series [4] was “innocuous and totally tolerated by the eye, the skin and the vagina”.
In turn, `Clc1ccccc1C(c1ccccc1)(c1ccccc1)n1ccnc1` [Clotrimazole] showed an RIF in [1] of 43.05. Further, the MIC is given as 2,43 in the series with C. albicans; 2,36 with C. parapsilosis; 3,51 in the series with C. tropicalis; 0,97 in the series with M. gypseum; 6,18 in the series on C. Krusei; 0,09 in the series with Epidermophyton floccosum. Further, the MIC is listed as 2,69 against Microsporum canis; 0,90 against T. tonsurans; 6,29 against Torulopsis glabrata; 0,31 in the series on Trich. rubrum; 0,23 against Trichoph. mentagrophytes. Moreover, the “% of animals with total clin. healing” value in the series on candidiosis worked out at 30%. The “% of negative cultures after treatment” value in the series on candidiosis was found to be 100%. The “% of strains with MIC lower than 40 »g/mL” value in series [3] amounted to 33%. In [3], the “% of strains with PIC lower than 40 »g/mL” value came to 56%.
